Laboratory results from patent publication US5242946A, “Treating herpes Viral infections” (Bio-Mega, Inc., priority 1988, dated 1993).

How the values were obtained:
[1] = molecular target: T1, Hamster 96-V-2(600) ribonucleotide reductase (Cricetulus griseus, UniProt G3I2K8+G3I3B7); experiment: Inhibition of hamster 96-V-2(600) ribonucleotide reductase (reduction of CDP); type: biochemical, Chinese hamster; settings: partially purified enzyme 40 μg, in the presence of adenosine triphosphate (4 mM) and magnesium chloride (11.5 mM)
T1 construct: overproducing strain; endogenous in cells; host or cells: 96-V-2(600), overproducing strain of a Chinese hamster lung cell line (partially purified)
Experimental: Hamster 96-V-2(600) ribonucleotide reductase (partially purified) was obtained from an overproducting strain of a Chinese hamster lung cell line as described by W. H. Lewis and P. R. Scinivasan, Mol. Cell Biol., 3, 1053 (1983).
Samples of the HSV-1 ribonucleotide reductase (65 μg with a specific activity of 26 units per mg) were mixed with increasing concentrations of the test compound, i.e. the naphthalene noted in the title of this example, in a series of tubes. Ribonucleotide reductase activity was assayed by monitoring the reduction of cytidine diphosphate (CDP) as described by Cohen et al., supra. The standard reaction mixture, in a final volume of 60 μl, contained: 50 mM, N-2-hydroxyethylpiperazine-N'-2-ethanesulfonic acid (pH 7.8); 4 mM NaF, 30 mM DL-dithiothreitol (DTT); 1 mM bacitracin, 54 μM CDP and 0.25 μCi of [^3 H]CDP. After 30 minutes of incubation at 37° C., the reaction was stopped by immersing the tube in boiling water for 4 minutes. The precipitate was removed by centrifugation. Nucleotides in the supernatant were converted to nucleosides by enzymatic hydrolysis. The deoxyribonucleosides were subsequently separated from the ribonucleosides by ascending polyethyleneimine-celulose chromatography. […] The results, shown in FIG. 1, are expressed as a percentage of the activity obtained in the controls.

[2] = molecular target: HSV-1 ribonucleotide reductase (Human alphaherpesvirus 1 strain 17, UniProt P08543+P10224); experiment: Inhibition of HSV-1 ribonucleotide reductase (reduction of CDP); type: biochemical, herpes simplex virus (type 1), strain F; settings: for selective inhibition of the viral ribonucleotide reductase over the cellular ribonucleotide reductase: HSV-1 versus hamster 96-V-2(600) ribonucleotide reductase
Chain of HSV-1 ribonucleotide reductase (P10224 whole entry): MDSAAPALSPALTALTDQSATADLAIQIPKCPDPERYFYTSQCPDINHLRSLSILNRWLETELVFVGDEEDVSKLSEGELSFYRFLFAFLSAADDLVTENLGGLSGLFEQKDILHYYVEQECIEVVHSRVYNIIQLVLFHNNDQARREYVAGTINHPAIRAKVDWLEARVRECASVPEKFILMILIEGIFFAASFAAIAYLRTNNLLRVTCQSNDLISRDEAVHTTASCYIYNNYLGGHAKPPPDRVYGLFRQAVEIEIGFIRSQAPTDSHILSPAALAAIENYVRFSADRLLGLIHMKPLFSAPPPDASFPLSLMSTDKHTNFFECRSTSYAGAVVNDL
Chain of HSV-1 ribonucleotide reductase (P08543 whole entry): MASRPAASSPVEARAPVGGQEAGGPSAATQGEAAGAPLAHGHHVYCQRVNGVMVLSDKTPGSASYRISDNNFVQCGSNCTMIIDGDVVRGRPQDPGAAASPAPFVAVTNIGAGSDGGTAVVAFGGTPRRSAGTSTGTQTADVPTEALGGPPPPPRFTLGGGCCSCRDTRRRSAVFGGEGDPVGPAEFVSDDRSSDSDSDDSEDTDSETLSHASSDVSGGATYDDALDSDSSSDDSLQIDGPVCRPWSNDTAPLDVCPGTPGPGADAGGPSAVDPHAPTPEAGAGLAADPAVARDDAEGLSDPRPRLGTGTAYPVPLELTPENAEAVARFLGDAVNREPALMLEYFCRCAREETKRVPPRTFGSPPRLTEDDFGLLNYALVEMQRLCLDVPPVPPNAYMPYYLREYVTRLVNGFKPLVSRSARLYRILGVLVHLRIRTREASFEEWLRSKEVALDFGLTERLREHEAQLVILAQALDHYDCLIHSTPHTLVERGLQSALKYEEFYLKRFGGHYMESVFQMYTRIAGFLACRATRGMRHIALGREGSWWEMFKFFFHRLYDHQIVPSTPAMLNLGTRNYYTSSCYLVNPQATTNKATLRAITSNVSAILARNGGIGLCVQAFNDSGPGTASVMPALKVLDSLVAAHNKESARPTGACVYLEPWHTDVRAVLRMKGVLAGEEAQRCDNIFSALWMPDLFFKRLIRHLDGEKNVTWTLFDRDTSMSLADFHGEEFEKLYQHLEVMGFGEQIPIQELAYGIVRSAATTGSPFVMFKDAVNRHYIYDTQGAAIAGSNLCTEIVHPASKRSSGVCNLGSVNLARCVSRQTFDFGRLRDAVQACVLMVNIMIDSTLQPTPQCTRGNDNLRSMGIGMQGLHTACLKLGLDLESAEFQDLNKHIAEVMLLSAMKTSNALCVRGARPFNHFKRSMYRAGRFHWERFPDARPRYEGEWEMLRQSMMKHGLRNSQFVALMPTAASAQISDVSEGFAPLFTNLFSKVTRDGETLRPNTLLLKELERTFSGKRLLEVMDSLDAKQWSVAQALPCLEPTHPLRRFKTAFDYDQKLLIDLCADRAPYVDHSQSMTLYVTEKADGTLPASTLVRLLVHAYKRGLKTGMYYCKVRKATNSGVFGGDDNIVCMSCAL

T1 sequence (G3I3B7 entry or part of it): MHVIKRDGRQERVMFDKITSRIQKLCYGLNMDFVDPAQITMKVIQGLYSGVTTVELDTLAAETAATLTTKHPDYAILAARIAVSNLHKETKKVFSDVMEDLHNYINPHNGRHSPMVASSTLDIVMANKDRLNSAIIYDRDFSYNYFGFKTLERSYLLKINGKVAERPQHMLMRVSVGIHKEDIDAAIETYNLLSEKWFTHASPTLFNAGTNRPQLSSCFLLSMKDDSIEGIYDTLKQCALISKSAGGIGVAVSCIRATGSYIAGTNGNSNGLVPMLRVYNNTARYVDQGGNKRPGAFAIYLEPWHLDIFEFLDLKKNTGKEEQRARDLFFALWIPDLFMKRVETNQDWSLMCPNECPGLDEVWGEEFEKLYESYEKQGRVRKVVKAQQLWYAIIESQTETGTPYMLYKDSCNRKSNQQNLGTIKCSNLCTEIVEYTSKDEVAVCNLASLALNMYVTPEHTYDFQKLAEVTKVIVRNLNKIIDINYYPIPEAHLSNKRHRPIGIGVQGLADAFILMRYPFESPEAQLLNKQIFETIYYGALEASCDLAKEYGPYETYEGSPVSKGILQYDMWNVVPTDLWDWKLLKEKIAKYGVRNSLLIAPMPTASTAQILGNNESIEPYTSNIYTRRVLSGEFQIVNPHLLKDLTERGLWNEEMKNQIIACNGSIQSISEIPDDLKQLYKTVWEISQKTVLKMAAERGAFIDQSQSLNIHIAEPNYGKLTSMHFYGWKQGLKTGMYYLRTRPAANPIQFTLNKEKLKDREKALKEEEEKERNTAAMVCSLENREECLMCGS
T1 sequence (G3I2K8 entry or part of it): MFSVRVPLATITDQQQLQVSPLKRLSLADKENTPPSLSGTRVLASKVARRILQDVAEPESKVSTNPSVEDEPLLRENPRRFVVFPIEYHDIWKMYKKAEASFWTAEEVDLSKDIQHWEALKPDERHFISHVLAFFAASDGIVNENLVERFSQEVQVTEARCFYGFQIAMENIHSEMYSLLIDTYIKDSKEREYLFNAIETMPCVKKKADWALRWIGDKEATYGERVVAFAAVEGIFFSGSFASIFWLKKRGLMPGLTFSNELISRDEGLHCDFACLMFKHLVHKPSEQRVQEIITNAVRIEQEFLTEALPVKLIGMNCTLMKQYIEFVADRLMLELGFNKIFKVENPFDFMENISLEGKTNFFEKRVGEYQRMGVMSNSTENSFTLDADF

Compound | IC50 [1] [µM] | selective inhibition of the viral ribonucleotide reductase over the cellular ribonucleotide reductase [2] | IC50 ([2]; partially purified enzyme 65 μg, 54 μM CDP, 30 minutes at 37° C., pH 7.8, read-out: IC50, fifty percent reduction of the HSV-1 ribonucleotide reductase activity) [µM]
COc1c(OC)c(OC(C)=O)c2cc(Cl)ccc2c1OC(C)=O [6-Chloro-2,3-dimethoxy-1,4-naphthalenediol diacetate] | > 250 | selective inhibition | 31
COc1ccc2c(OC(C)=O)c(OC)c(OC)c(OC(C)=O)c2c1 [2,3,6-trimetoxy-1,4-naphthalenediol diacetate] | – | selective inhibition | –
COc1c(OC)c(OC(C)=O)c2ccccc2c1OC(C)=O [2,3-dimethoxy-1,4-1,4-naphthalenediol diacetate] | – | selective inhibition | –
